Measurements reported in patent US20260201008A1, “SECRETIN-DERIVED GLP1R SELECTIVE AGONISTS” (GUBRA A/S, priority 2023, published 2026).
Like-named read-outs stand apart in the source and are kept apart here. Numbered stars: 1 amine (or outer) side, 2 acyl side, 3 side chain; on linkers, the order of the positions; unused ones are H or OH. Square brackets hold non-standard residues; d marks the D form. Side chains are listed from the residue outwards. Peptide text beside a SMILES is read from it. * marks the point of attachment. C20 diacid = O=C(O)CCCCCCCCCCCCCCCCCCC(=O)*; γGlu = O=C(O)[C@H](CCC(=O)[*:2])N[*:1]; AEEA = NCCOCCOCC(=O)O; Aib = CC(C)(N)C(=O)O

Experiments:
[1] = biological target: GLP1R (Homo sapiens, UniProt P43220); assay: hGLP1R potency, cAMP accumulation in CHO-K1 cells stably overexpressing hGLP1R; assay type: cell-based; design: host or cells: CHO-K1; conditions: for Selectivity: SCTR EC50/GLP1R EC50 ratio; for EC50: cAMP accumulation; for SCTR EC50/GLP1R EC50 ratio: cAMP accumulation in CHO-K1 cells
Chain of GLP1R (P43220 24-463): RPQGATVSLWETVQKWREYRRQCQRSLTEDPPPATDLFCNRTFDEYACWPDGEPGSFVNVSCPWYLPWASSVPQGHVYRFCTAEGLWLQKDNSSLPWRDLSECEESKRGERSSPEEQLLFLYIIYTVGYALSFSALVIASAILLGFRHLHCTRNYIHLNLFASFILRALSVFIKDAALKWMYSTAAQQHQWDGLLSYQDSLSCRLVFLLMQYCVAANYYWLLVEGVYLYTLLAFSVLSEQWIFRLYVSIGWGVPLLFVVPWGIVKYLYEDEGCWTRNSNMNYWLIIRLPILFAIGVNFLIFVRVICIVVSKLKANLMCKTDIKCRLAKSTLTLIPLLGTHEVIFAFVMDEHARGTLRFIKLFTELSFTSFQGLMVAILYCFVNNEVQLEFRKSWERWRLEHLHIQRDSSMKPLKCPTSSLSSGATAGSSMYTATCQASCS
Method in brief: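 In the presence of 0.5 mM IBMX, compounds stimulated the cells for 30 minutes at room temperature. Accumulated cAMP was then detected by TR-FRET, with EC50 values fitted by variable-slope nonlinear regression.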

[2] = Fibril formation of crude library peptides (Thioflavin T); assay type: physicochemical; design: key: average ThT fluorescence emission at 480 nm (ex 450 nm), raw units; conditions: Physical stability of peptides
Method in brief: (§1)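 Fibril formation is scored as average ThT fluorescence from duplicate samples monitored for 72 h at 40° C with shaking stress. Turbidity is the absorbance at 600 nm taken before heating. Peptide concentration was 267 μM at pH 4.0 or pH 7.0.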

[3] = Turbidity of crude library peptides (absorbance at 600 nm); assay type: physicochemical; conditions: Physical stability of peptides
Method in brief: as §1

[4] = biological target: SCTR (Homo sapiens, UniProt P47872); assay: hSCTR potency, cAMP accumulation in CHO-K1 cells stably overexpressing hSCTR; assay type: cell-based; design: alternatively Euroscreen ES-712-AF; FAST-0161L; host or cells: CHO-K1; conditions: cAMP accumulation
Chain of SCTR (P47872 23-440): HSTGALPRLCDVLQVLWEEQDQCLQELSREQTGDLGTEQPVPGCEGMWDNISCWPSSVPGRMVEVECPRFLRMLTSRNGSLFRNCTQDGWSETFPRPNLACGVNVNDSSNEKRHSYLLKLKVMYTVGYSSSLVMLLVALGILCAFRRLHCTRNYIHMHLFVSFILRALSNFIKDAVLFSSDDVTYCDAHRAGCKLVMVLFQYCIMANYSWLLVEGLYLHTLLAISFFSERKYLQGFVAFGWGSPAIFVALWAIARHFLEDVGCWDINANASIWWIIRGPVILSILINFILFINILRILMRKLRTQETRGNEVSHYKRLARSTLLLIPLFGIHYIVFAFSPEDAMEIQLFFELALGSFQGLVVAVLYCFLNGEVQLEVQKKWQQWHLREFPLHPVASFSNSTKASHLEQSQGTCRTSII
Method in brief: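 In this Gs cAMP assay, stably transfected CHO-K1 hSCTR cells were stimulated at room temperature for 30 min in IBMX-containing buffer. Time-resolved FRET gave the signal. Replicates were increased when the top concentration changed or EC50 values differed 5-fold.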

[5] = CHO-K1 cells overexpressing hGLP1R, read-out: pEC50 hGLPR1 (converted)
[6] = CHO-K1 cells overexpressing hSCTR, read-out: pEC50 hSCTR (converted)
[7] = CHO-K1 cells overexpressing hGLP1R, read-out: hGLP1R pEC50 (converted)
[8] = selectivity for hGLP1R over hSCTR
[9] = CHO-K1 cells overexpressing hSCTR, read-out: hSCTR pEC50 (converted)

Selectivity [1] | EC50 [1, 5] | Fibril formation [2] | Turbidity (pH 7) [3] | EC50 [4, 6] | EC50 [1, 7] | SCTR EC50/GLP1R EC50 ratio [1, 8] | EC50 [4, 9] | EC50 ([1]; CHO-K1 cells stably overexpressing hGLP1R, read-out: hGLP1R potency (pEC50) (converted)) | SCTR EC50/GLP1R EC50 ratio ([1]; selectivity ratio, hSCTR vs hGLP1R) | EC50 ([4]; CHO-K1 cells stably overexpressing hSCTR, read-out: hSCTR potency (pEC50) (converted)) | Compound
20678 | 0.02 nM | 16453 | 0.08 | 398 nM | – | – | – | – | – | – | CC(C)C[C@H](NC(=O)[C@H](Cc1ccccc1)NC(=O)[C@H](CCCNC(=N)N)NC(=O)[C@H](CCC(N)=O)NC(=O)[C@H](CCC(=O)O)NC(=O)[C@H](C)NC(=O)[C@H](C)NC(=O)[C@H](CCC(=O)O)NC(=O)[C@H](CCC(=O)O)NC(=O)[C@H](CCCCNC(=O)COCCOCCNC(=O)COCCOCCNC(=O)CC[C@H](NC(=O)CCCCCCCCCCCCCCCCCCC(=O)O)C(=O)O)NC(=O)[C@H](CC(C)C)NC(=O)[C@H](CCCNC(=N)N)NC(=O)[C@H](CO)NC(=O)[C@@H](NC(=O)[C@H](CC(=O)O)NC(=O)[C@H](CO)NC(=O)[C@@H](NC(=O)[C@H](Cc1ccccc1)NC(=O)[C@@H](NC(=O)CNC(=O)[C@H](CCC(=O)O)NC(=O)C(C)(C)NC(=O)[C@@H](N)Cc1c[nH]cn1)[C@@H](C)O)[C@@H](C)O)C(C)C)C(=O)N[C@@H](CCC(=O)O)C(=O)N[C@@H](Cc1c[nH]cn1)C(=O)N[C@@H](CC(C)C)C(=O)N[C@H](C(N)=O)C(C)C [compound 22] (H-H[Aib]EGTFTSDVSRLK([AEEA-AEEA-γGlu-C20 diacid])EEAAEQRFLEHLV-NH2)
– | – | 260000 | 0.14 | – | 0.0794 nM | 20773 | 1580 nM | – | – | – | CC(C)C[C@H](NC(=O)[C@H](Cc1ccccc1)NC(=O)[C@H](CCCNC(=N)N)NC(=O)[C@H](CCC(N)=O)NC(=O)[C@H](CO)NC(=O)[C@H](C)NC(=O)[C@H](C)NC(=O)[C@H](Cc1ccccc1)NC(=O)[C@H](CCC(=O)O)NC(=O)[C@H](CCCCNC(=O)COCCOCCNC(=O)COCCOCCNC(=O)CC[C@H](NC(=O)CCCCCCCCCCCCCCCCCCC(=O)O)C(=O)O)NC(=O)[C@H](CC(C)C)NC(=O)[C@@H](NC(=O)[C@H](CO)NC(=O)[C@@H](NC(=O)[C@H](CC(=O)O)NC(=O)[C@H](CO)NC(=O)[C@@H](NC(=O)[C@H](Cc1ccccc1)NC(=O)[C@@H](NC(=O)CNC(=O)[C@H](CCC(=O)O)NC(=O)C(C)(C)NC(=O)[C@@H](N)Cc1c[nH]cn1)[C@@H](C)O)[C@@H](C)O)C(C)C)C(C)C)C(=O)N[C@@H](CCC(=O)O)C(=O)N[C@@H](Cc1c[nH]cn1)C(=O)N[C@@H](CC(C)C)C(=O)N[C@H](C(N)=O)C(C)C [compound 92] (H-H[Aib]EGTFTSDVSVLK([AEEA-AEEA-γGlu-C20 diacid])EFAASQRFLEHLV-NH2)
– | – | 238242 | 0.50 | – | 0.01 nM | 19436 | 200 nM | – | – | – | CC[C@H](C)[C@H](NC(=O)[C@H](Cc1ccccc1)NC(=O)[C@H](CCCNC(=N)N)NC(=O)[C@H](CCC(N)=O)NC(=O)[C@H](CC(C)C)NC(=O)[C@H](C)NC(=O)[C@H](C)NC(=O)CNC(=O)[C@H](CCC(=O)O)NC(=O)[C@H](CC(C)C)NC(=O)[C@H](CC(C)C)NC(=O)[C@H](Cc1ccccc1)NC(=O)[C@H](CO)NC(=O)[C@@H](NC(=O)[C@H](CC(=O)O)NC(=O)[C@H](CO)NC(=O)[C@@H](NC(=O)[C@H](Cc1ccccc1)NC(=O)[C@@H](NC(=O)CNC(=O)[C@H](CCC(=O)O)NC(=O)C(C)(C)NC(=O)[C@@H](N)Cc1c[nH]cn1)[C@@H](C)O)[C@@H](C)O)[C@@H](C)CC)C(=O)N[C@@H](CCC(N)=O)C(=O)N[C@@H](Cc1c[nH]c2ccccc12)C(=O)N[C@@H](CC(C)C)C(=O)N[C@H](C(N)=O)C(C)C [compound 117] (H-H[Aib]EGTFTSDISFLLEGAALQRFIQWLV-NH2)
179887 | 0.0398 nM | 11030 | 0.10 | 7940 nM | – | – | – | – | – | – | CC(C)C[C@H](NC(=O)[C@H](Cc1ccccc1)NC(=O)[C@H](CCCNC(=N)N)NC(=O)[C@H](CCC(N)=O)NC(=O)[C@H](CCC(=O)O)NC(=O)[C@H](C)NC(=O)[C@H](C)NC(=O)[C@H](CCC(=O)O)NC(=O)[C@H](CCC(=O)O)NC(=O)[C@H](CCCCNC(=O)COCCOCCNC(=O)COCCOCCNC(=O)CC[C@H](NC(=O)CCCCCCCCCCCCCCCCCCC(=O)O)C(=O)O)NC(=O)[C@H](CC(C)C)NC(=O)[C@H](Cc1ccccc1)NC(=O)[C@H](CO)NC(=O)[C@@H](NC(=O)[C@H](CC(=O)O)NC(=O)[C@H](CO)NC(=O)[C@@H](NC(=O)[C@H](Cc1ccccc1)NC(=O)[C@@H](NC(=O)CNC(=O)[C@H](CCC(=O)O)NC(=O)C(C)(C)NC(=O)[C@@H](N)Cc1c[nH]cn1)[C@@H](C)O)[C@@H](C)O)C(C)C)C(=O)N[C@@H](CCC(=O)O)C(=O)N[C@@H](Cc1c[nH]cn1)C(=O)N[C@@H](CC(C)C)C(=O)N[C@H](C(N)=O)C(C)C [compound 56] (H-H[Aib]EGTFTSDVSFLK([AEEA-AEEA-γGlu-C20 diacid])EEAAEQRFLEHLV-NH2)
– | – | 3301 | 0.08 | – | 0.0794 nM | 39765 | 3160 nM | – | – | – | CC[C@H](C)[C@H](NC(=O)[C@H](Cc1ccccc1)NC(=O)[C@H](CCCNC(=N)N)NC(=O)[C@H](CCC(N)=O)NC(=O)[C@H](CC(C)C)NC(=O)[C@H](C)NC(=O)[C@H](C)NC(=O)CNC(=O)[C@H](CCC(=O)O)NC(=O)[C@H](CC(C)C)NC(=O)[C@H](CC(C)C)NC(=O)[C@H](CCC(=O)O)NC(=O)[C@H](CO)NC(=O)C(C)(C)NC(=O)[C@H](CC(=O)O)NC(=O)[C@H](CO)NC(=O)[C@@H](NC(=O)[C@H](Cc1ccccc1)NC(=O)[C@@H](NC(=O)CNC(=O)[C@H](CCC(=O)O)NC(=O)C(C)(C)NC(=O)[C@@H](N)Cc1c[nH]cn1)[C@@H](C)O)[C@@H](C)O)C(=O)N[C@@H](CCC(N)=O)C(=O)N[C@@H](Cc1c[nH]c2ccccc12)C(=O)N[C@@H](CC(C)C)C(=O)N[C@H](C(N)=O)C(C)C [compound 109] (H-H[Aib]EGTFTSD[Aib]SELLEGAALQRFIQWLV-NH2)
10668 | 0.00631 nM | 14344 | 0.09 | 79.4 nM | – | – | – | – | – | – | CC(C)C[C@H](NC(=O)[C@H](Cc1ccccc1)NC(=O)[C@H](CCCNC(=N)N)NC(=O)[C@H](CCC(N)=O)NC(=O)[C@H](CCC(N)=O)NC(=O)[C@H](C)NC(=O)[C@H](C)NC(=O)[C@H](CCC(=O)O)NC(=O)[C@H](CCC(=O)O)NC(=O)[C@H](CCCCNC(=O)COCCOCCNC(=O)COCCOCCNC(=O)CC[C@H](NC(=O)CCCCCCCCCCCCCCCCCCC(=O)O)C(=O)O)NC(=O)[C@H](CC(C)C)NC(=O)[C@H](CCCNC(=N)N)NC(=O)[C@H](CO)NC(=O)[C@@H](NC(=O)[C@H](CC(=O)O)NC(=O)[C@H](CO)NC(=O)[C@@H](NC(=O)[C@H](Cc1ccccc1)NC(=O)[C@@H](NC(=O)CNC(=O)[C@H](CCC(=O)O)NC(=O)C(C)(C)NC(=O)[C@@H](N)Cc1c[nH]cn1)[C@@H](C)O)[C@@H](C)O)C(C)C)C(=O)N[C@@H](CCC(=O)O)C(=O)N[C@@H](Cc1c[nH]cn1)C(=O)N[C@@H](CC(C)C)C(=O)N[C@H](C(N)=O)C(C)C [compound 73] (H-H[Aib]EGTFTSDVSRLK([AEEA-AEEA-γGlu-C20 diacid])EEAAQQRFLEHLV-NH2)
– | – | 4198 | 0.08 | – | – | – | – | 0.00631 nM | 7444 | 50.1 nM | CC(C)C[C@H](NC(=O)[C@H](Cc1ccc(O)cc1)NC(=O)[C@H](CO)NC(=O)[C@H](Cc1c[nH]c2ccccc12)NC(=O)[C@H](CC(=O)O)NC(=O)[C@H](CO)NC(=O)[C@@H](NC(=O)[C@H](Cc1ccccc1)NC(=O)[C@@H](NC(=O)CNC(=O)[C@H](CCC(=O)O)NC(=O)C(C)(C)NC(=O)[C@@H](N)Cc1c[nH]cn1)[C@@H](C)O)[C@@H](C)O)C(=O)N[C@@H](CCCCNC(=O)COCCOCCNC(=O)COCCOCCNC(=O)CC[C@H](NC(=O)CCCCCCCCCCCCCCCCCCC(=O)O)C(=O)O)C(=O)N[C@@H](CCC(=O)O)C(=O)N[C@@H](CCC(=O)O)C(=O)N[C@@H](C)C(=O)NC(C)(C)C(=O)N[C@@H](CC(C)C)C(=O)N[C@@H](CCC(N)=O)C(=O)N[C@@H](CCCNC(=N)N)C(=O)N[C@@H](Cc1ccccc1)C(=O)N[C@@H](CC(C)C)C(=O)N[C@@H](CCC(=O)O)C(=O)N[C@@H](Cc1c[nH]cn1)C(=O)N[C@@H](CC(C)C)C(=O)N[C@H](C(N)=O)C(C)C [compound 185] (H-H[Aib]EGTFTSDWSYLK([AEEA-AEEA-γGlu-C20 diacid])EEA[Aib]LQRFLEHLV-NH2)
